Test results reported in patent US3988473A (priority 1975, dated 1976).
Where “and” joins values, the source holds several entries; their conditions need not be identical. Equal entries are not always repeated. Where two headings read alike, the source gives them in different places.

How the values were obtained:
[1] = test system: Guinea Pig Intradermal Wheals; settings: in vivo
[2] = in vivo
tissue = settings: in vivo
Dog = settings: in vivo
Sheep = settings: in vivo
rat sciatic nerve = settings: in vivo
[3] = test system: isolated frog sciatic nerve; set-up: species or system Rana pipiens; settings: for Greatest Depth of Block (% of action potential): frog, sciatic nerve
Female Mice = settings: mouse, in vivo
in vivo [4] = settings: mouse
[5] = test system: brain and the spinal cord; settings: in vivo
Cat = settings: in vivo
guinea pigs = settings: guinea pig, in vivo, sc, 646 mg/kg
in vivo [6] = settings: mouse, ip
in vivo [7] = settings: rat, sc

Compound	Duration of guinea pig intradermal wheals [1]	Local anaesthetic effect (in words) [2]	Tissue irritation (in words) (tissue)	Average time for 80% recovery of action potential [3] [min]	LD50 (in vivo [4]; ip) [mg/kg]	LD50 (in vivo [4]; iv) [mg/kg]	LD50 (in vivo [4]; sc) [mg/kg]	Duration of Block of Support of Weight (Cat)	Duration (rat sciatic nerve)	Frequency (rat sciatic nerve)	Onset (rat sciatic nerve)	further results
CCCN(CC(=O)Nc1c(C)cccc1C)C(C)(C)CC [Compound D, 2-(N-n-propyl-tert.-amylamino)-2',6'-acetoxylidide]	171 ± 26 min and 227 ± 21 min and 253 ± 16 min and 303 ± 19 min	unusual, long-lasting local anaesthetic effect and high local anaesthetic activity	satisfactory low level of tissue irritation	163	39	6.8	109					Duration of anaesthesia (in words) [2]: significantly longer duration than compounds A and B; Irritation compared with bupivacaine (tissue): not more irritating than bupivacaine at 0.5% concentration; Duration of block of Digital Pain (Dog): 1 to 2 days; Duration, Digital Pain (Dog): 289 min and 338 min; Duration, Scrotal Pain (Dog): 218 min and 226 min; Recovery of the animals (Dog): All animals recovered completely; Duration of block of Digital Pain (Sheep): 45 to 60 min; Onset time (Sheep): 5 to 10 min; Duration of block, 2 animals outside the mean (rat sciatic nerve): 10 to 13 days; Duration of rat sciatic nerve block (rat sciatic nerve): 217 ± 25 min and 124 ± 50 min and 157 ± 30 min; Duration of rat sciatic nerve block (days) (rat sciatic nerve): 8 to 27 days and 13 to 30 days; Greatest Depth of Block (% of action potential) ([3]; 5000 µM): 96%; Acute toxicity (in words) (Female Mice): satisfactory low acute toxicity; Pathological change in brain and spinal cord [5]: no pathological change attributable to the drugs was found
CCN(CC)CC(=O)Nc1c(C)cccc1C [Y, diethylaminoaceto-2,6-xylide, reference compound]	78 ± 9 min and 110 ± 13 min and 117 ± 6 min and 121 ± 12 min							88 ± 10 min				
CCCCN(CC(=O)Nc1c(C)cccc1C)C(C)(C)C [Compound E, 2-(N-n-butyl-tert.-butylamino)-2',6'-acetoxylide]												Duration of block of Digital Pain (Dog): 1 to 2 days; Recovery of the animals (Dog): All animals recovered completely; Survival (guinea pigs): all animals survived; Duration of rat sciatic nerve block, Mean ± S.D. (rat sciatic nerve): 174 ± 26 min and 200 ± 18 min and 237 min; Frequencies and durations (in words) (rat sciatic nerve): Frequencies and durations were good; Frequency of rat sciatic nerve block (rat sciatic nerve): 9/10 and 10/10; LD50 (in vivo [6]): 284 mg/kg; Pathological change in brain and spinal cord [5]: no pathological change attributable to the drugs was found; LD50 (in vivo [7]): 1070 mg/kg
Cc1cccc(C)c1NC(=O)C(C)NC(C)(C)C (centres unmarked) [Compound B, 2-(tert.-butylamino)-2',6'-propionoxylidide]									128 ± 13 and 133 ± 7	5/5	3 min and 2 min	Guinea Pig Wheal Duration [1]: 139 ± 24 and 160 ± 43 and 184 ± 36; Guinea Pig Wheal Frequency [1]: 12/12; Adverse signs in rat sciatic test (rat sciatic nerve): Depression, ataxia, loss of righting reflex in some animals; Rat Sciatic Frequency (rat sciatic nerve): 8/10 and 10/10; LD50 (in vivo [6]): 61 mg/kg
CCN(CC(=O)Nc1c(C)cccc1C)C(C)(C)CC [C, 2-(N-ethyl-tert.-amylamino)-2',6'-acetoxylidide]	158 ± 49 min and 230 ± 32 min and 301 ± 11 min	unusual, long-lasting local anaesthetic effect and high local anaesthetic activity	satisfactory low level of tissue irritation	29	81	7.4		220 ± 64 min and 298 ± 56 min				Duration of anaesthesia (in words) [2]: significantly longer duration than compounds A and B; Duration of Block of Support of Weight, 1 animal outside the mean (Cat): > 7 h; Irritation compared with bupivacaine (tissue): not more irritating than bupivacaine at 0.5% concentration; Duration of rat sciatic nerve block (days) (rat sciatic nerve): 1 to 8 days; Greatest Depth of Block (% of action potential) ([3]; 20000 µM): 77%; Acute toxicity (in words) (Female Mice): satisfactory low acute toxicity
CCCCN1CCCCC1C(=O)Nc1c(C)cccc1C (centres unmarked) [X, N-n-butylpipecolyl-2,6-xylidide, reference compound]	182 ± 4 min and 252 ± 5 min and 314 ± 10 min			65	40	6.4	45					Toxic effects (Cat): Toxic effects observed; Greatest Depth of Block (% of action potential) ([3]; 5000 µM): 64%
Cc1cccc(C)c1NC(=O)CNC(C)(C)C [A, 2-(tert.-butylamino)-2',6'-acetoxylidide]	129 ± 14 min and 148 ± 20 min and 186 ± 17 min and 197 ± 14 min	unusually long-lasting local anaesthetic effect	quite satisfactory		119	35.4	141	54 ± 9 min and 104 ± 29 min	126 ± 12 and 157 ± 18	5/5	5 min	Intravenous toxicity (in words) (Female Mice; iv): unusually low intravenous toxicity
CCC(C)(C)NCC(=O)Nc1c(C)cccc1C [Compound F, 2-(N-tert.-amylamino)-2',6'-acetoxylidide]									97 ± 4 and 101 ± 8	6/6	3 min and 2 min	
